According to patent US20110129467A1, “THERAPEUTIC COMBINATION COMPRISING AN AURORA KINASE INHIBITOR AND ANTIPROLIFERATIVE AGENTS” (NERVIANO MEDICAL SCIENCES S.R.L., priority 2008, published 2011):
Where two headings read alike, the source gives them in different places.

Tests used:
[1] = tested on: HL-60 human acute myeloid leukaemia cells; conditions: HL-60 sc in SCID mice; for T-C: delay vs control to reach 1 g
Description: The treatment started 12 days later tumor cells injection when tumors were palpable.
When combined, Compound 1 was administered in the interval between the bortezomib treatments at days 13, 14, 15, 17, 18, 19, 21, 22, 23, 25, 26 and 27. […] Tumor growth was assessed by caliper.

[2] = tested on: HL-60 human acute myeloid leukaemia cells; conditions: HL-60 model; previously demonstrated; cited from earlier work
[3] = tested on: DU145 prostate carcinoma cells; assay: In vivo antitumor efficacy, DU145 prostate carcinoma subcutaneous xenograft in athymic mice; conditions: Compound 1 15 mg/kg ip BID, Bevacizumab 20 mg/kg ip days 9, 13, 17; for Time to reach 1 g / T-C: DU145 sc in athymic mice; for T-C: delay vs control to reach 1 g
Description: Balb, Nu\Nu male mice, from Harlan (Italy), were maintained in cages with paper filter cover, food and bedding sterilized and water acidified. 2.5×10^6 DU145 prostate carcinoma cells (from the American Type Culture Collection) were injected subcutaneously in athymic mice. […] The treatment started at day 9 after cell injection, when tumors were palpable with a tumor weight mean for all the groups of 0.15 g.
Bevacizumab was administered intraperitoneally in a volume of 10 ml/kg at the dose of 20 mg/kg on days 9, 13, 17 from the days of tumor cells injection. […] Tumor growth and body weight were measured every 3 days. Tumor growth was assessed by caliper. […] This delay (T-C value) was defined as the difference of time (in days) required for the treatment group (T) and the control group(C) tumors to reach a predetermined size (1 g). Toxicity was evaluated on the basis of body weight reduction.

[4] = tested on: DU145 prostate carcinoma cells; conditions: previously demonstrated (The Prostate 36: 1-10, 1998); cited from earlier work
[5] = Bortezomib 1 mg/kg iv days 12, 16, 20, 24 (combination: + Compound 1 15 mg/kg ip)
[6] = Compound 1 15 mg/kg ip BID, Bortezomib 0.5 mg/kg iv days 12, 16, 20, 24

**Q.** For `CC(C)C[C@H](NC(=O)[C@H](Cc1ccccc1)NC(=O)c1cnccn1)B(O)O` [Bortezomib], which “Time to reach 1 g” value [1, 5] is on record?
**A.** 23.8 days

**Q.** What about the “Time to reach 1 g” value [1, 6] of the same molecule?
**A.** 19 days

**Q.** What about the “T-C” value [1, 5] of the same molecule?
**A.** 8.2 days

**Q.** What about the “T-C” value [1, 6] of the same molecule?
**A.** 3.4 days

**Q.** For `CO[C@@H](C(=O)N1Cc2[nH]nc(NC(=O)c3ccc(N4CCN(C)CC4)cc3)c2C1)c1ccccc1` [Compound 1, N-{5-[(2R)-2-methoxy-2-phenylethanoyl]-1,4,5,6-tetrahydropyrrolo[3,4-c]pyrazol-3-yl}-4-(4-methylpiperazin-1-yl)benzamide], which “effect on growth of the tumor model in vivo” value [2] is on record?
**A.** inhibits growth of the model in vivo

**Q.** What about the “Time to reach 1 g” value [1, 6] of the same molecule?
**A.** 24.7 days

**Q.** And the “T-C” value [1, 6]?
**A.** 9.1 days

**Q.** And the “Time to reach 1 g” value [3]?
**A.** 23.9 days

**Q.** And the “T-C” value [3]?
**A.** 8.5 days

**Q.** Which “effect on angiogenesis and growth of the tumor model in vivo” value [4] does the source give for “Bevacizumab: antibody to vascular endothelial growth factor; marketed as Avastin” here?
**A.** inhibits angiogenesis and growth of the model in vivo

**Q.** And the “Time to reach 1 g” value [3]?
**A.** 18.5 days

**Q.** What about the “T-C” value [3] of the same molecule?
**A.** 3.1 days

**Q.** What about the Toxicity ([3]; evaluated on body weight reduction) of the same molecule?
**A.** 0/8
